Data as given in ChEMBL document CHEMBL4804283, “Stk19 inhibitors for treatment of cancer” (2020).
Activity calls are given as the source filed them. The rule behind the calls is not given here.

Key:
[1] = target: T1, Inactive serine/threonine-protein kinase 19 (Homo sapiens) (UniProt P49842); test: Inhibition of STK19 in human SK-MEL-2 cells expressing NRAS Q61R and wild-type BRAF at 100 nM assessed as H3K9 methylation relative to control; format: cell-based
T1 sequence (whole entry): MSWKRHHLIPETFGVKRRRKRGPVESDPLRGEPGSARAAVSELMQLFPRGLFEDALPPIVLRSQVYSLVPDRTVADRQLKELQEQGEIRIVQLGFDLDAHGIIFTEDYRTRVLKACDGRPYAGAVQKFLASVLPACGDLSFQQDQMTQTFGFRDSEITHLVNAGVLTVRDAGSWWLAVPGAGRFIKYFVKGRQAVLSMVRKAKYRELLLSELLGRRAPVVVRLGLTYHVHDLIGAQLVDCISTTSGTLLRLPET

[2] = Toxicity in C57BL/6J mouse assessed as effect on total protein level at 25 mg/kg, administered twice daily for 20 days; format: organism-based; conditions: in vivo, 480 h
[3] = target: T1, Inactive serine/threonine-protein kinase 19 (Homo sapiens); test: Inhibition of STK19 in human UACC62 cells expressing wild-type NRAS and BRAF V600E mutant at 1-3 uM assessed as PI3K signaling relative to control; format: cell-based; conditions: UACC-62
[4] = Toxicity in C57BL/6J mouse assessed as spleen histology at 25 mg/kg, administered twice daily for 20 days by H and E staining method; format: organism-based; conditions: in vivo, 480 h
[5] = target: T2, Histone-lysine N-methyltransferase EHMT2 (Homo sapiens) (UniProt Q96KQ7); test: Inhibition of G9a in human WM2032 cells expressing NRAS Q61R and wild-type BRAF at 100-300 nM relative to control; format: cell-based
T2 sequence (whole entry): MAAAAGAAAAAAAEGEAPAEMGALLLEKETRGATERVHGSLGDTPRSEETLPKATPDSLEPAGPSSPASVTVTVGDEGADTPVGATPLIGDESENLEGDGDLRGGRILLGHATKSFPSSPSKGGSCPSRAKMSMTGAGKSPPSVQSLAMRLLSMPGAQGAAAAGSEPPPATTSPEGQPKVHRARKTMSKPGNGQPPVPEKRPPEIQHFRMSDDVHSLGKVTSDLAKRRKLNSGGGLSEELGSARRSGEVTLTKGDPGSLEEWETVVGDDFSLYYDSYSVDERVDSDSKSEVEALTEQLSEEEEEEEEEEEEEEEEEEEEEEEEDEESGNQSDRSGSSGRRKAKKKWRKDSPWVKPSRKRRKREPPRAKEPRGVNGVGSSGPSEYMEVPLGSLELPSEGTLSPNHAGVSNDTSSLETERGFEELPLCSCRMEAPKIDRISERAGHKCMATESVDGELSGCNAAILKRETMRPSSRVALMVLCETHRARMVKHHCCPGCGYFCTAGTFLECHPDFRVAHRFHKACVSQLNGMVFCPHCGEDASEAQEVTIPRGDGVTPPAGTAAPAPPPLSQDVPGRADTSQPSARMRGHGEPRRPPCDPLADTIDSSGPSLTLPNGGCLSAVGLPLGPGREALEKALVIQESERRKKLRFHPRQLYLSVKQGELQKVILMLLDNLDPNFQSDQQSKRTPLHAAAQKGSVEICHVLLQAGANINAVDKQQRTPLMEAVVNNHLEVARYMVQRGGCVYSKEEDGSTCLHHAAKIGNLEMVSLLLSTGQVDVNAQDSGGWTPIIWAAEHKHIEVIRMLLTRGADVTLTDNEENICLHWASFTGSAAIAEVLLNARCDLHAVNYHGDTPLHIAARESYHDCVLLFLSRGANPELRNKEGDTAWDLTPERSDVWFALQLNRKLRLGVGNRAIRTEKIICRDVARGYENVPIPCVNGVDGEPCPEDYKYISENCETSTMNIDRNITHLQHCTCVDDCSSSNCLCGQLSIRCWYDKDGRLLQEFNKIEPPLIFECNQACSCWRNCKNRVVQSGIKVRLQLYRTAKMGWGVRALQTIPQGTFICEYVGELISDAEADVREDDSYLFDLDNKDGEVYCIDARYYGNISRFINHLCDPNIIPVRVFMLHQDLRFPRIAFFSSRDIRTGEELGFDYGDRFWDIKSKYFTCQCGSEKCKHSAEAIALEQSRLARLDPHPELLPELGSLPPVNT

[6] = test system: hTERT; test: Antitumor activity against hTERT/p53DD/CDK4 (R24C) immortal melanocytes expressing STK19 D89N mutant xenografted in nude mouse assessed as reduction in tumor formation; format: functional; conditions: Homo sapiens
[7] = Toxicity in C57BL/6J mouse assessed as liver histology at 25 mg/kg, administered twice daily for 20 days by H and E staining method; format: organism-based; conditions: in vivo, 480 h
[8] = test system: SK-MEL-2; test: Inhibition of G9a in nude mouse xenografted with human SK-MEL-2 cells assessed as decrease in H3K9 methylation at 25 mg/kg; format: functional, organism-based
[9] = target: T1, Inactive serine/threonine-protein kinase 19 (Homo sapiens); test: Inhibition of STK19 in human SK-MEL-2 cells expressing NRAS Q61R and wild-type BRAF at 300 nM assessed as H3K9 methylation relative to control; format: cell-based
[10] = target: T1, Inactive serine/threonine-protein kinase 19 (Homo sapiens); test: Inhibition of STK19 in human WM2032 cells expressing NRAS Q61R and wild-type BRAF at 300 nM assessed as NRAS phosphorylation relative to control; format: cell-based
[11] = target: T1, Inactive serine/threonine-protein kinase 19 (Homo sapiens); test: Inhibition of STK19 in human WM2032 cells expressing NRAS Q61R and wild-type BRAF at 100 nM assessed as H3K9 methylation relative to control; format: cell-based
[12] = target: T2, Histone-lysine N-methyltransferase EHMT2 (Homo sapiens); test: Inhibition of G9a in human SK-MEL-2 cells expressing NRAS Q61R and wild-type BRAF at 100-300 nM relative to control; format: cell-based
[13] = test system: SK-MEL-2; test: Growth inhibition of human SK-MEL-2 cells expressing NRAS Q61R and wild-type BRAF at 1-3 uM relative to control; format: functional, cell-based
[14] = Toxicity in C57BL/6J mouse assessed as effect on total bilirubin level at 25 mg/kg, administered twice daily for 20 days; format: organism-based; conditions: in vivo, 480 h
[15] = test system: A-375; test: Induction of apoptosis in human A375 cells expressing wild-type NRAS and BRAF V600E mutant at 1-3 uM relative to control; format: functional, cell-based
[16] = target: T1, Inactive serine/threonine-protein kinase 19 (Homo sapiens); test: Inhibition of STK19 in human SK-MEL-2 cells expressing NRAS Q61R and wild-type BRAF at 1-3 uM assessed as MEK-ERK signaling relative to control; format: cell-based
[17] = target: T1, Inactive serine/threonine-protein kinase 19 (Homo sapiens); test: Inhibition of STK19 in human WM2032 cells expressing NRAS Q61R and wild-type BRAF at 1-3 uM assessed as MEK-ERK signaling relative to control; format: cell-based
[18] = target: T1, Inactive serine/threonine-protein kinase 19 (Homo sapiens); test: Inhibition of STK19 in human UACC62 cells expressing wild-type NRAS and BRAF V600E mutant at 1-3 uM assessed as MEK-ERK signaling relative to control; format: cell-based; conditions: UACC-62
[19] = Toxicity in C57BL/6J mouse assessed as effect on lactic dehydrogenase level at 25 mg/kg, administered twice daily for 20 days; format: organism-based; conditions: in vivo, 480 h
[20] = test system: hTERT; test: Antiproliferative activity against hTERT/p53DD/CDK4 (R24C) immortal melanocytes expressing wild-type STK19 at 3 uM relative to control; format: functional, tissue-based; conditions: Homo sapiens
[21] = test system: SK-MEL-2; test: Antitumor activity against human SK-MEL-2 cells xenografted in nude mouse assessed as tumor growth inhibition; format: functional

COc1cc2nc(NC3CC3)nc(NC3CCN(C(C)C)CC3)c2cc1OC.O=C(O)C(F)(F)F
inhibition [1]: inactive | Activity [2]: Non-Toxic | inhibition [3]: inactive | Activity [4]: Non-Toxic | inhibition [5]: inactive | Activity [6]: Active | Activity [7]: Non-Toxic | inhibition [8]: inactive | inhibition [9]: inactive | inhibition [10]: Active | inhibition [11]: inactive | inhibition [12]: inactive | Activity [13]: Active | Activity [14]: Non-Toxic | Activity [15]: inactive | inhibition [16]: Active | inhibition [17]: Active | inhibition [18]: inactive | Activity [19]: Non-Toxic | Activity [20]: Active | TGI [21]: Dose-Dependent Effect
